Data on 2 compounds can be found in patent US9963467B2, “Boronic acid derivatives and therapeutic uses thereof” (Rempex Pharmaceuticals, Inc., priority 2014, dated 2018).

For series [1], the system named is KP1009 (CTX-M-15). The series can be described thus: organism not typed. The format is cell-based. To be noted: read-out: Aztreonam MIC KP1009.
Series [2] has as its system KP1005 (CTX-M-14). In words: Aztreonam potentiation (MPC@4), KP1005. The format is cell-based.
Series [3] relates to ECL1002. The series can be described thus: Aztreonam potentiation (MPC@4), ECL1002. The series is classed as cell-based.
Series [4] deals with KP1010 (SHV-12). In words: Aztreonam potentiation (MPC@4), KP1010. The format is cell-based. To be noted: read-out: Aztreonam MIC KP1010.
Series [5] relates to KP1004 (KPC-2). The series can be described thus: Aztreonam potentiation (MPC@4), KP1004. The format is cell-based.
The subject of series [6] is ec302 (TEM-10). In words: Aztreonam potentiation (MPC@4), ec302. The series is classed as cell-based.
The subject of series [7] is strains of various bacteria that are resistant to aztreonam due to expression of various β-lactamases. In words: Aztreonam MIC of test strains. The series is classed as cell-based. To be noted: read-out: Aztreonam MICs of test strains; across the test strains.
Series [8] concerns EC1010 (CMY-6). The series can be described thus: organism not typed. The format is cell-based.
Series [9] concerns ec308 (SHV-5). The series can be described thus: Aztreonam potentiation (MPC@4), ec308. The series is classed as cell-based. The note with it: read-out: Aztreonam MIC ec308.
For another series, the target named is P99 (Enterobacter cloacae, UniProt P05364). The series can be described thus: Ki, nitrocefin cleavage by purified enzyme, P99. The series is classed as biochemical. The note with it: nitrocefin reporter substrate; read-out: Ki (P99, NCF). In a few lines: (§1)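 10 min RT preincubation, enzyme with inhibitor series in reaction buffer. Substrate nitrocefin; kinetic read 490 nm, 10 sec intervals, 10 min total.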

The test system of series [10] is ec308 (SHV-5). In words: Tigemonam potentiation (MPC@4), ec308. The format is cell-based.
Series [11] relates to ec302 (TEM-10). In words: Tigemonam potentiation (MPC@4), ec302. The format is cell-based.
The next series relates to KP1086 (OXA-48). In words: Biapenem potentiation (MPC@1), KP1086. To be noted: BLI with biapenem at 1 μg/mL.
The target in the next series is OXA-48 (Klebsiella pneumoniae, UniProt Q6XEC0). The series can be described thus: Ki, nitrocefin cleavage by purified enzyme, OXA-48. The format is biochemical. To be noted: nitrocefin reporter substrate; read-out: Ki (OXA-48, NCF). Put shortly: as §1
Series [12] deals with KP1009 (CTX-M-15). The series can be described thus: Tigemonam potentiation (MPC@4), KP1009. To be noted: BLI with tigemonam at 4 μg/mL. The format is cell-based.
For another series, the target named is CTX-M-14 (Escherichia coli, UniProt Q9L5C7). In words: Ki, nitrocefin cleavage by purified enzyme, CTX-M-14. The format is biochemical. To be noted: nitrocefin reporter substrate; read-out: Ki (CTX-M-14, NCF). In a few lines: as §1
The subject of series [13] is KP1005 (CTX-M-14). The series can be described thus: Tigemonam potentiation (MPC@4), KP1005. The series is classed as cell-based. To be noted: BLI with tigemonam at 4 μg/mL.
For another series, the target named is KPC-2 (Klebsiella pneumoniae, UniProt Q9F663). The series can be described thus: Ki, nitrocefin cleavage by purified enzyme, KPC-2. The series is classed as biochemical. To be noted: nitrocefin reporter substrate; read-out: Ki (KPC-2, NCF). In a few lines:
as §1

A short description of series [14]: Monomer content of pH adjusted aqueous solutions (LC-UV). The note with it: 1 mg/mL aqueous salt solution, pH adjusted to 7.6 to 8, LC-UV. The series is classed as physicochemical. Put shortly: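 Aqueous solutions at 1.00, 10.0 or 100 mg/mL (active fraction) brought to pH 7.6–8 with acid or base, compound fully dissolved. Injected within half an hour of preparation onto C18 reversed-phase LC (0.1% TFA water / 0.085% TFA methanol gradient); UV detection at 220, 254 and 300 nm.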

In series [15] the test system is KP1004 (KPC-2). In words: Biapenem potentiation (MPC@1), KP1004. To be noted: BLI with biapenem at 1 μg/mL.
Another series concerns the target Pa AmpC (Pseudomonas aeruginosa, UniProt P24735). The series can be described thus: Ki, nitrocefin cleavage by purified enzyme, Pa AmpC. The series is classed as biochemical. The note with it: nitrocefin reporter substrate; read-out: Ki (Pa AmpC, NCF). Put shortly:
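Enzyme–inhibitor mixtures, spanning various inhibitor concentrations, were held 10 min at room temperature in reaction buffer prior to nitrocefin addition. Spectrophotometric monitoring of substrate cleavage at 490 nm then ran 10 min at 10-sec intervals to yield Ki.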

The target of another series is SHV-12 (Klebsiella pneumoniae, UniProt P0AD64, E235K/G234S/L31Q). In words: Ki, nitrocefin cleavage by purified enzyme, SHV-12. The format is biochemical. The note with it: nitrocefin reporter substrate; read-out: Ki (SHV-12, NCF). In a few lines:
as §1

The test system of series [16] is KP1010 (SHV-12). The series can be described thus: Tigemonam potentiation (MPC@4), KP1010. The series is classed as cell-based.
The test system of series [17] is EC1010 (CMY-6). The series can be described thus: Tigemonam potentiation (MPC@4), EC1010. The format is cell-based. To be noted: BLI with tigemonam at 4 μg/mL.
The nature of series [18]: Intravenous pharmacokinetics. The series is classed as in vivo. To be noted: rat, plasma; rats, 20 mg/kg, intravenous infusion over 0.5 hours; read-out: Free Cl (converted). As for the experimental part: Rats (n=3 per compound) were administered by a single infusion. Intravenous doses were infused over 0.5 hours via an indwelling femoral vein cannula. […] (˜0.3 mL) samples were collected from each rat at designated time points up to 24 hours. Blood samples were centrifuged within 5 min of collection at 12000 g for 5 min to obtain plasma. The plasma samples were stored at −80° C. until analyzed. Data were analyzed using WinNonlin. The doses of all compounds tested were 20 mg/kg.

Series [19] deals with ECL1002. The series can be described thus: Tigemonam potentiation (MPC@4), ECL1002. The series is classed as cell-based. To be noted: BLI with tigemonam at 4 μg/mL.

P99, sequence (P05364 21-381): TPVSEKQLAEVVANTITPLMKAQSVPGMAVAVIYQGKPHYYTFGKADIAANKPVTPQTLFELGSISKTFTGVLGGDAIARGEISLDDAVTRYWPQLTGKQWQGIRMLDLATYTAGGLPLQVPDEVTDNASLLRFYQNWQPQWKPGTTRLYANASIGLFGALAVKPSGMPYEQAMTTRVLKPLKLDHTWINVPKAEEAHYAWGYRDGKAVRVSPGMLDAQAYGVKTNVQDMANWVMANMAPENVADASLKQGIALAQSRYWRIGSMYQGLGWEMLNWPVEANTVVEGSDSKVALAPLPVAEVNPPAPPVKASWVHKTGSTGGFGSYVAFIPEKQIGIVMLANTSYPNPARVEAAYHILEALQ
Pa AmpC, sequence (P24735 27-397): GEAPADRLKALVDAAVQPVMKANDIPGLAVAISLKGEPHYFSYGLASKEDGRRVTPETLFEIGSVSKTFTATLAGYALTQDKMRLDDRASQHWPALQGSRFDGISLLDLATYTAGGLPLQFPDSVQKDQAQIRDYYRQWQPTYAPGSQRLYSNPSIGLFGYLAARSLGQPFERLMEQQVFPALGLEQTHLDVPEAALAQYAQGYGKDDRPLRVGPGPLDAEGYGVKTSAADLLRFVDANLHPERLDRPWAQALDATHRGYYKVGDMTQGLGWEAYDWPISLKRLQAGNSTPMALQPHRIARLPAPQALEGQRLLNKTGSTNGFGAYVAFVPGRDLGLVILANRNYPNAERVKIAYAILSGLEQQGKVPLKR
OXA-48, sequence (Q6XEC0 23-265, looked up, species assumed): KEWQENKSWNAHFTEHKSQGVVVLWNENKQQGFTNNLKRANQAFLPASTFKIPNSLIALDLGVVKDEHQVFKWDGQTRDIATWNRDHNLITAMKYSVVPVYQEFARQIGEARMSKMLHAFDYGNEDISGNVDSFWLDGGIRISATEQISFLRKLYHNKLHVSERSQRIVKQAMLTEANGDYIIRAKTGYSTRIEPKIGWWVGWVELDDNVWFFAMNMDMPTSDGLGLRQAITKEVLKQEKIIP
CTX-M-14, sequence (Q9L5C7 29-291): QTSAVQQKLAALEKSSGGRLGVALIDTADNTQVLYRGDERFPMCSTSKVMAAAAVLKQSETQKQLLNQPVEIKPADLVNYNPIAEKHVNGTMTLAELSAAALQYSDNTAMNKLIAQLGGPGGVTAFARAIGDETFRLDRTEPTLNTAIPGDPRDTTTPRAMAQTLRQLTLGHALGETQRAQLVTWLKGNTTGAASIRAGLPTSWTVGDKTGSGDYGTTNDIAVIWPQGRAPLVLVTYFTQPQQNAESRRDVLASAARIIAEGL
SHV-12, sequence (P0AD64 22-286 L31Q/G234S/E235K): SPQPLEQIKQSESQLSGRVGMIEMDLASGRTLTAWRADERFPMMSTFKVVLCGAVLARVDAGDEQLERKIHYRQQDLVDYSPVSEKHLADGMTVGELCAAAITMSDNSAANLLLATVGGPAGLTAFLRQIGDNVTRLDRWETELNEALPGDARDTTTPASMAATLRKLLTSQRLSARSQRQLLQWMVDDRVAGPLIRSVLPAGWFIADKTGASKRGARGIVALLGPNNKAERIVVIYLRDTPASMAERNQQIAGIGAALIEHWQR
KPC-2, sequence (Q9F663 25-293, looked up, species assumed): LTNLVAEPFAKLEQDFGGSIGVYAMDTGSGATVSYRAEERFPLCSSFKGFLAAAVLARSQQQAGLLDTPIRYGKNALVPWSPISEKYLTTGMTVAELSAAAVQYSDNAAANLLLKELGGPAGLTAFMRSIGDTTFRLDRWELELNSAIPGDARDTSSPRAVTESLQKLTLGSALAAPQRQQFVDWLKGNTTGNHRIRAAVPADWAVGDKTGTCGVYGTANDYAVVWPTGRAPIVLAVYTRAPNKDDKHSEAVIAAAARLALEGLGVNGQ

On to `C[C@H]1[C@H](NC(=O)/C(=N\OC(C)(C)C(=O)O)c2csc(N)n2)C(=O)N1S(=O)(=O)O` [Aztreonam, reference compound], for which the MIC with KP1009 (CTX-M-15) [1], in the series on KP1005 (CTX-M-14) [2] (read-out: Aztreonam MIC KP1005), in the series on ECL1002 [3] (read-out: Aztreonam MIC ECL1002), in the series on KP1010 (SHV-12) [4], in the series with KP1004 (KPC-2) [5] (read-out: Aztreonam MIC KP1004) and in the series with ec302 (TEM-10) [6] (read-out: Aztreonam MIC ec302) was more than 10 µg/mL throughout. Also, the values for the MIC (in series [7]; in the series on EC1010 (CMY-6) [8] (read-out: Aztreonam MIC EC1010); in the series on ec308 (SHV-5) [9]) were not below 64 µg/mL, more than 10 µg/mL and more than 10 µg/mL, respectively.

By Ki is commonly meant a dissociation constant, usually derived from enzyme kinetics or from competition with a known ligand. In the case of `O=C(CSC(F)F)N[C@H]1Cc2ccc(F)c(C(=O)O)c2OB1O` [Compound 3, (R)-3-(2-(difluoromethylthio)acetamido)-7-fluoro-2-hydroxy-3,4-dihydro-2H-benzo[e][1,2]oxaborinine-8-carboxylic acid], the Ki on P99 was more than 10 nM; at OXA-48, 1 to 10 nM; at CTX-M-14, less than 1 nM; at KPC-2, more than 10 nM; on Pa AmpC it was more than 10 nM; on SHV-12 it was less than 1 nM. In the series with ec308 (SHV-5) [10], the “TIG MPC4 SHV-5 ec308” value was “X (key: X: MIC of less than 1 μg/mL; Y: MIC of 1 μg/mL to 10 μg/mL; Z: MIC of greater than 10 μg/mL)”. The “TIG MPC4 TEM-10 ec302” value in the series with ec302 (TEM-10) [11] is “Y (key: X: MIC of less than 1 ng/mL; Y: MIC of 1 μg/mL to 10 μg/mL; Z: MIC of greater than 10 μg/mL)”. In addition, the “BPM MPC1 OXA-48 KP1086” value in the series on KP1086 (OXA-48) is on record as “Z (MIC of greater than 10 μg/mL)”. The “AZT MPC4 CTX-M-14 KP1005” value in the series on KP1005 (CTX-M-14) [2] (BLI with aztreonam at 4 μg/mL) is recorded as “Y (MIC of 1 μg/mL to 10 μg/mL)”. Besides, the “TIG MPC4 CTX-M-15 KP1009” value with KP1009 (CTX-M-15) [12] is given as “X (MIC of less than 1 μg/mL)”. In the series with KP1005 (CTX-M-14) [13], the “TIG MPC4 CTX-M-14 KP1005” value is reported as “X (MIC of less than 1 μg/mL)”. In the series with ECL1002 [3] (BLI with aztreonam at 4 μg/mL), the “AZT MPC4 ECL1002” value is given as “Y (MIC of 1 μg/mL to 10 μg/mL)”. Besides, the “% Monomer in 1 mg/mL salt solution” value in series [14] was 99.8%. Also, the “BPM MPC1 KP1004 KPC-2” value in the series on KP1004 (KPC-2) [15] is reported as “X (MIC of less than 1 μg/mL)”. Moreover, in the series with KP1004 (KPC-2) [5] (BLI with aztreonam at 4 μg/mL), the “AZT MPC4 KPC-2 KP1004” value is given as “Y (MIC of 1 μg/mL to 10 μg/mL)”. Further, in the series on ec302 (TEM-10) [6] (BLI with aztreonam at 4 μg/mL), the “AZT MPC4 TEM-10 ec302” value is listed as “X (MIC of less than 1 ng/mL)”. Also, the “TIG MPC4 SHV-12 KP1010” value in the series with KP1010 (SHV-12) [16] is listed as “X (key: X: MIC of less than 1 μg/mL; Y: MIC of 1 μg/mL to 10 μg/mL; Z: MIC of greater than 10 μg/mL)”. Moreover, the “TIG MPC4 CMY-6 EC1010” value with EC1010 (CMY-6) [17] is given as “X (MIC of less than 1 μg/mL)”. Also, in series [18], the clearance is 13 mL/min/kg. Besides, the “AZT MPC4 CMY-6 EC1010” value in the series on EC1010 (CMY-6) [8] is recorded as “Y (key: X: MIC of less than 1 ng/mL; Y: MIC of 1 μg/mL to 10 μg/mL; Z: MIC of greater than 10 μg/mL)”. For the same compound, the “TIG MPC4 ECL1002” value in the series with ECL1002 [19] was “Y (MIC of 1 μg/mL to 10 μg/mL)”.
